Experimental data published in patent publication US8039014B2, “3′-alkoxyspirocyclopentyl-substituted tetramic and tetronic acids” (Bayer Cropscience AG, priority 2005, dated 2011).

Tested on: cereal
Experiment: Herbicidal post-emergence action with safener: container trials with cereal outdoors ('bird cage'), mefenpyr 1 day prior to herbicide application
Format: in vivo
Details: without safener
Protocol: Seeds of monocotyledonous and dicotyledonous weed and crop plants are placed into sandy loam in wood fiber pots or in plastic pots, covered with soil and cultivated in a greenhouse, during the vegetation period also outdoors outside of the greenhouse, under good growth conditions. 2 to 3 weeks after sowing, the test plants are treated at the one- to three-leaf stage. The test compounds, formulated as wettable powders (WP) or liquid (EC), are, in various dosages at a water application rate of 300 l/ha (converted), with wetting agent (0.2 to 0.3%) added, sprayed onto the plants and the surface of the soil. […]
If it is additionally to be tested as to whether safeners can improve the plant compatibility of test substances in the case of crop plants, the following options are used for applying the safener: • seeds of the crop plants are, before sowing, dressed with the safener substance (the amount of safener stated in percent, based on the weight of the seed) • before the application of the test substances, the crop plants are sprayed with the safener at a certain application rate per hectare (usually 1 day before the application of the test substances) • the safener is applied together with the test substance as a tank mix (the amount of safener is stated in g/ha or as a ratio, based on the herbicide). […]

CCc1cc(Cl)cc(OC)c1C1=C(O)C2(CCC(OC)C2)NC1=O (centres unmarked) [Example I-1-a-4] was tested, and the “Summer wheat after 10 d observed (%)” value (25 g ai/ha) was 25% and the “Summer wheat after 10 d observed (%)” value (50 g ai/ha) was 40%.
